Activity calls are given as the source filed them.
Experiments:
[1] = Trypanosoma cruzi growth suppression in host cells – NIH3T3 host cells, beta-gal luminescence, confirmation (AID 2044); format: functional, cell-based;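 also: intracellular parasites grown in NIH/3T3 mouse fibroblasts as host cells; luminescent beta-galactosidase reporter signal from transgenic T. cruzi replicating inside host cells; inhibitors lower the luminescence signal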
[2] = target: T1, RNA-binding protein pos-1 (Caenorhabditis elegans, UniProt G5EF15); assay: disruptors of C. elegans POS-1 RNA interaction – biochemical, fluorescence polarization, dose response (AID 1964);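 also: purified POS-1 fused to maltose binding protein made in E. coli; potency of compounds blocking POS-1 binding to fluorescent RNA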
T1 sequence (G5EF15 whole entry): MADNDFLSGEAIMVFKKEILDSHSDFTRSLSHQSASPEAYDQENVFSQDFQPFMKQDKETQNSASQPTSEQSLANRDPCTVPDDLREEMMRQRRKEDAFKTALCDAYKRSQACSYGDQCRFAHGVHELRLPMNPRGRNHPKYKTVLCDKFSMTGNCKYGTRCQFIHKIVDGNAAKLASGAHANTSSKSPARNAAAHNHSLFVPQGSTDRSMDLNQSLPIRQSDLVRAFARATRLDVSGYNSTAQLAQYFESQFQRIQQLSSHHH

[3] = target: T2, Zinc finger protein mex-5 (Caenorhabditis elegans, UniProt Q9XUB2); assay: potency of MEX-5 RNA-binding blockers – biochemical, C. elegans, fluorescence polarization, dose response (AID 1960)
T2 sequence (Q9XUB2 whole entry): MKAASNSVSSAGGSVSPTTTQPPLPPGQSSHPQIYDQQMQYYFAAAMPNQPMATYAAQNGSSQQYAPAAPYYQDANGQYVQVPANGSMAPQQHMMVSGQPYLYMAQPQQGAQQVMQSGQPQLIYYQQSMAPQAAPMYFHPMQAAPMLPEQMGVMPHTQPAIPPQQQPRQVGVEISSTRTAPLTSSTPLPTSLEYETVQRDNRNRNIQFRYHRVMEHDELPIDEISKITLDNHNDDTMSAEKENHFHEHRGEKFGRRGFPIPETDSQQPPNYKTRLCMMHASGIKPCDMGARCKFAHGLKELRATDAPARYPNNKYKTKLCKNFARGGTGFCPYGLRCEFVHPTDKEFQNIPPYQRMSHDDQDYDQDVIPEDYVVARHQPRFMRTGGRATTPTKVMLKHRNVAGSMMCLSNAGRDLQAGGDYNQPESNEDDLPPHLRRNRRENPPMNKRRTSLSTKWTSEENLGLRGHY

Protein skinhead-1 = target: T3, Protein skinhead-1 (Caenorhabditis elegans, UniProt P34707); format: functional
T3 sequence (P34707 whole entry): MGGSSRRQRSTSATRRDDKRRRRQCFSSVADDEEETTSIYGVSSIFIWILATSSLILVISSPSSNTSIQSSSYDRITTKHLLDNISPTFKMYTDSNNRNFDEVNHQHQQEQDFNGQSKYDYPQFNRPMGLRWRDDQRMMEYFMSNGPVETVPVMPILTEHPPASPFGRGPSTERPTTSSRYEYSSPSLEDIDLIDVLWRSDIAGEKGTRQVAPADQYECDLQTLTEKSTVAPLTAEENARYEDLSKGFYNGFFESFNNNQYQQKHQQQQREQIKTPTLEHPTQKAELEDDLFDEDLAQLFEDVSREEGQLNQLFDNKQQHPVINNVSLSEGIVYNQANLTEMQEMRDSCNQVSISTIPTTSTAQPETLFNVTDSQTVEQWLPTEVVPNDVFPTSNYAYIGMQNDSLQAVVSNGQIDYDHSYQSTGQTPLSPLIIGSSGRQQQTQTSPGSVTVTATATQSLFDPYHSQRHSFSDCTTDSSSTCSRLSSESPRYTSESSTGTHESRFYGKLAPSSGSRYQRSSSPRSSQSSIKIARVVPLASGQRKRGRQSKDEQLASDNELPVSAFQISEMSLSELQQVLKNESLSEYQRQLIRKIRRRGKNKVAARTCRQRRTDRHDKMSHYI

[4] = NIH3T3 cell viability loss – ATP luminescence, mouse fibroblasts, counter-screen, dose response (AID 2010); format: functional, cell-based;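 also: cells exposed to compound for about 90 hours before reading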
[5] = target: T4, Calpain-2 catalytic subunit (Sus scrofa, UniProt P43367); assay: m-calpain protease blockers, concentration series – biochemical, fluorogenic peptide substrate, dose response (AID 1420); format: functional
T4 sequence (P43367 whole entry): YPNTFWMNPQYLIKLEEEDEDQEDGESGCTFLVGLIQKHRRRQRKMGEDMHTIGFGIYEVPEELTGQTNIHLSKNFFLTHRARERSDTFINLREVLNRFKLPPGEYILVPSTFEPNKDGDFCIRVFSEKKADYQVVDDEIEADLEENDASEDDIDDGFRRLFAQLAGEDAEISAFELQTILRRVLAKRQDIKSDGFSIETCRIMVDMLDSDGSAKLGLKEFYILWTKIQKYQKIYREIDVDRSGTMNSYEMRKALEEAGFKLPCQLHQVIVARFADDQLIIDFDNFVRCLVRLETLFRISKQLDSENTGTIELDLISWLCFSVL

Large T antigen = Large T antigen (Simian virus 40, UniProt P03070); format: functional, Betapolyomavirus macacae;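 also: Confirmatory-stage PubChem screen for compounds that inhibit SV40 T antigen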
Large T antigen, sequence (P03070 whole entry): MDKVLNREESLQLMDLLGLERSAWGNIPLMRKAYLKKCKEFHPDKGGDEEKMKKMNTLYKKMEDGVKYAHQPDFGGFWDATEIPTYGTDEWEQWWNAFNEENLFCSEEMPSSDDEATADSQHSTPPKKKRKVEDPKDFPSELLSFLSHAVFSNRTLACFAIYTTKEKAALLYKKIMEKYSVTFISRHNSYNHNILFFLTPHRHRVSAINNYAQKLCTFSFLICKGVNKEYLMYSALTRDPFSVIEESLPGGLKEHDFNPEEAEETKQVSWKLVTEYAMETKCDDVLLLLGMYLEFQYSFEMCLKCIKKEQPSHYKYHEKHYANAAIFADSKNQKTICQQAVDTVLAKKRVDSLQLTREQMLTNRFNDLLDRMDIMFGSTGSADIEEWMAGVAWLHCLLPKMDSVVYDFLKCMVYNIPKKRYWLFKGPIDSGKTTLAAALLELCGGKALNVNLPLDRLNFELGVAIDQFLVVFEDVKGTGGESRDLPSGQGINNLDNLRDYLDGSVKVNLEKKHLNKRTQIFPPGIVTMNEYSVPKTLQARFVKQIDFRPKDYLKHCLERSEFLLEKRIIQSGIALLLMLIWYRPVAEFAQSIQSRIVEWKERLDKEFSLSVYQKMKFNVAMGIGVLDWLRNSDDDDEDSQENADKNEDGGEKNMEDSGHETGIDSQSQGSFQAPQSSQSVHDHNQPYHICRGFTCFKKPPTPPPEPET

[6] = target: FAD-linked sulfhydryl oxidase ALR (Homo sapiens, UniProt P55789); assay: ALR-catalysed DTT oxidation blockers – biochemical, H2O2 detection, luminescence, cherry-pick, dose response (AID 493248)
FAD-linked sulfhydryl oxidase ALR, sequence (P55789 whole entry): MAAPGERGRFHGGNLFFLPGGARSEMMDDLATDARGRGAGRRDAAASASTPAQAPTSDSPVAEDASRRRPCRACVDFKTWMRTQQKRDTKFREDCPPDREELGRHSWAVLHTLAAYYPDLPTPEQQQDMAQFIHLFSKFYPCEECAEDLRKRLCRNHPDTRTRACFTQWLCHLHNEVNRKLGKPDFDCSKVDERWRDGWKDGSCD

Nonstructural protein 1 = Nonstructural protein 1 (Influenza A virus, UniProt Q194T2); format: functional, Influenza A virus (A/California/07/2009(H1N1))
Nonstructural protein 1, sequence (Q194T2 whole entry): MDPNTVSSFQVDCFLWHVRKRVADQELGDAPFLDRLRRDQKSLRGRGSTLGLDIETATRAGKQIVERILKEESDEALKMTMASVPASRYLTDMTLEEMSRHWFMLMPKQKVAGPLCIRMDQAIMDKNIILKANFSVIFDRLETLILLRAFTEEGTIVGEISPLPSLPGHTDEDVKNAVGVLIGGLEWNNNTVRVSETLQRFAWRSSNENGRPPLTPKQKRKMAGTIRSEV

Leucine aminopeptidase = target: T5, Leucine aminopeptidase (Plasmodium falciparum 3D7, UniProt Q8IL11); assay: P. falciparum M17LAP inhibitors, primary screen, biochemical, fluorogenic H-Leu-NHMec substrate, 1536-well (AID 1619); format: functional
T5 sequence (Q8IL11 whole entry): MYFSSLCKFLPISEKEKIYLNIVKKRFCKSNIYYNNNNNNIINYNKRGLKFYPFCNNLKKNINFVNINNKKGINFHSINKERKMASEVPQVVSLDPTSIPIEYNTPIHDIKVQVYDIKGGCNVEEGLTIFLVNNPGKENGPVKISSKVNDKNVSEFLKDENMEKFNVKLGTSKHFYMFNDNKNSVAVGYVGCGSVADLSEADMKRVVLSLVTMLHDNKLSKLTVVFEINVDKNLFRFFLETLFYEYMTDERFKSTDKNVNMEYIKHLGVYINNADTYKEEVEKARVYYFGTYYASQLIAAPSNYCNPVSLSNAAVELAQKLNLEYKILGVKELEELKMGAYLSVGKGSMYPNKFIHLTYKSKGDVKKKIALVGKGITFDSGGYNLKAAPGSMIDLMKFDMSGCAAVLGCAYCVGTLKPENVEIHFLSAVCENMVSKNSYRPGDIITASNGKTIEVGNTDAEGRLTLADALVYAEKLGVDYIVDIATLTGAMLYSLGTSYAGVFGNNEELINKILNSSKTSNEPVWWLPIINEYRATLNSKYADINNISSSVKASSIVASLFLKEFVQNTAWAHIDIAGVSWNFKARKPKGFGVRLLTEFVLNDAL

Cytochrome P450 2C19 = Cytochrome P450 2C19 (Homo sapiens, UniProt P33261); assay: Cytochrome panel assay with activity outcomes. Panel member name: p450-cyp2c19 Compounds with AC50 equal or less than 10 uM are considered active; format: functional; conditions: read-out: AC50
Cytochrome P450 2C19, sequence (P33261 whole entry): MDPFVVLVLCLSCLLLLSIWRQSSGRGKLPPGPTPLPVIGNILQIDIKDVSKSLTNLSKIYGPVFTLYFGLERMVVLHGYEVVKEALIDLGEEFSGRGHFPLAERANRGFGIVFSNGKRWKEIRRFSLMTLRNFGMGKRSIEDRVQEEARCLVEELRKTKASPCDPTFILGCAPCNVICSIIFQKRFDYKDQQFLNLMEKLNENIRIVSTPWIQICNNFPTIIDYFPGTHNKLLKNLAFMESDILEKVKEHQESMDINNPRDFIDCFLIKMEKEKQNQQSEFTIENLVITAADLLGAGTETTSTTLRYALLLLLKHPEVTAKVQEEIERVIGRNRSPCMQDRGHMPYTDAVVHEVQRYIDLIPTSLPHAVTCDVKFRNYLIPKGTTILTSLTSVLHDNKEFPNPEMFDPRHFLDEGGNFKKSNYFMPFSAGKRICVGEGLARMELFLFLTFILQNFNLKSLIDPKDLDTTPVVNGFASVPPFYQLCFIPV

Cytochrome P450 2D6 = Cytochrome P450 2D6 (Homo sapiens, UniProt P10635);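 also: CYP2D6 member of a cytochrome P450 panel assay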
Cytochrome P450 2D6, sequence (P10635 whole entry): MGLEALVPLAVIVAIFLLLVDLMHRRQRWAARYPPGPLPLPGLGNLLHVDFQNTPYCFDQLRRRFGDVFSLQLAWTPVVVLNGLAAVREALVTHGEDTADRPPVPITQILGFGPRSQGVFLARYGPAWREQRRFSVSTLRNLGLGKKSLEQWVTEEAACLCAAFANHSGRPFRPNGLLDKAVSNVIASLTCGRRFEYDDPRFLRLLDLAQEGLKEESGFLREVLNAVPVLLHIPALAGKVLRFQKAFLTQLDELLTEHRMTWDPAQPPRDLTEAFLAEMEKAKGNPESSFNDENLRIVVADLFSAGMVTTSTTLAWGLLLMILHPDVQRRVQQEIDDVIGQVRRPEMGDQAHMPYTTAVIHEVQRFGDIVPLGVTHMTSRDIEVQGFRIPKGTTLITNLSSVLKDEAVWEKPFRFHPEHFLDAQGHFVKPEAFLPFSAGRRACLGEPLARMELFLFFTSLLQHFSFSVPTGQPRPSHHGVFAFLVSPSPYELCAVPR

Fc1ccc(CNc2nc(-c3ccccc3)nc3ccccc23)cc1
EC50 [1]: 0.107 µM (active)
EC50 [2]: > 300 µM (not active)
EC50 [3]: > 300 µM (not active)
IC50 (Protein skinhead-1): 32.9 µM (active)
EC50 [4]: > 30 µM (not active)
IC50 [5]: 6.57 µM (not active)

COc1cc(/C=N/NS(=O)(=O)c2ccc(Br)cc2)ccc1O
IC50 (Large T antigen): 19.4 µM (active)
AC50 [6]: 1.7 µM (active)

Nc1nnnn1CC(=O)N/N=C/c1cc([N+](=O)[O-])ccc1O
IC50 (Nonstructural protein 1): 3.13 µM (active)

O=C(O)C1CCCCC1C(=O)Nc1cc(Cl)ccc1Cl (stereo not drawn)
IC50 (Leucine aminopeptidase): 25 µM (active)
AC50 (Cytochrome P450 2C19): 25.1 µM (inconclusive)

O=C(CN1C(=O)c2ccccc2S1(=O)=O)NC1CC2CCC1C2 (stereo not drawn)
IC50 (Leucine aminopeptidase): 75.4 µM (active)

O=C(CSc1nc[nH]n1)Nc1nnc(-c2ccccc2)s1
IC50 (Leucine aminopeptidase): 43.1 µM (active)

Cc1cc(C)nc(NS(=O)(=O)c2ccc(N/C=C3\CCCC3=O)cc2)n1
IC50 (Leucine aminopeptidase): 56.7 µM (active)

CC(C)C[C@H](NC(=O)c1[nH]cnc1C(=O)N[C@@H](CCCCNC(=O)OC(C)(C)C)C(=O)OC(C)(C)C)C(=O)OC(C)(C)C
IC50 [5]: 3.89 µM (not active)

COC(=O)c1c(C)oc(C)c1S(=O)(=O)Nc1ccc(C(C)C)cc1
IC50 [5]: 11.4 µM (not active)

COCCSc1nnc(NC(=O)c2cc(C(=O)OC)cc([N+](=O)[O-])c2)s1
IC50 (Leucine aminopeptidase): 60.2 µM (active)

O=C(CN=C(S)N(Cc1ccccc1)Cc1cccs1)NCc1ccc(F)cc1
IC50 [5]: 9.61 µM (not active)

Cc1c(NN=C2C(=O)NC(=S)NC2=O)c(=O)n(-c2ccccc2)n1C
IC50 (Nonstructural protein 1): 2.77 µM (active)

O=C(NCC1COc2ccccc2O1)C1C2C=CC3(CN(Cc4cccs4)C(=O)C13)O2 (stereo not drawn)
IC50 (Leucine aminopeptidase): 7.96 µM (active)

O=C(CCCOc1ccc(Cl)cc1Cl)N1CCc2ccccc2C1
IC50 [5]: 7.32 µM (not active)

c1nc(NCc2ccc3c(c2)OCO3)n[nH]1
IC50 (Leucine aminopeptidase): 17.9 µM (active)

COc1cc(/C=N/Nc2ccccn2)ccc1O
IC50 (Large T antigen): 5.41 µM (active)

CCOc1cc(C(=O)N/N=C\c2cn(CC)nc2C)cc(OCC)c1OCC
IC50 [5]: > 50 µM (not active)

COc1ccccc1/C=C/C=N/NC(=O)CCC1C(=O)NN=C1C (stereo not drawn)
IC50 (Leucine aminopeptidase): 57.2 µM (active)

COc1ccc(N2CCN(C(CNC(=O)C3CCCCC3)c3cccnc3)CC2)cc1 (stereo not drawn)
IC50 (Large T antigen): 27 µM (active)
AC50 (Cytochrome P450 2D6): 0.355 µM (inconclusive)
AC50 (Cytochrome P450 2C19): 7.08 µM (inconclusive)

CCN(CC)c1ccc(NC(=O)CSc2ccsc2[N+](=O)[O-])c(C)c1
IC50 (Leucine aminopeptidase): 1.9 µM (active)

N#CCOc1nc(N2CCCC2)nc(N2CCCC2)n1
IC50 [5]: 14.3 µM (not active)

CCOC(=O)c1c(NC(=O)C2C3CCC(O3)C2C(=O)O)sc(C)c1-c1ccc(F)cc1 (stereo not drawn)
IC50 (Leucine aminopeptidase): 8.78 µM (active)

CC(C)c1ccc(CNc2ccc([N+](=O)[O-])cn2)cc1
IC50 [5]: 6.03 µM (active)

CN(C)c1ncc(S(=O)(=O)c2ccc(Cl)cc2)c(-c2ccccc2)n1
IC50 [5]: 8.73 µM (not active)
